Reference: US11370774B2, “Substituted benzofuran, benzopyrrole, benzothiophene, and structurally related complement inhibitors” (BioCryst Pharmaceuticals, Inc., priority 2018, dated 2022)

Molecular target: Factor D (Homo sapiens (Human), UniProt P00746)
Assay: Factor D esterolytic assay (Z-Lys-SBzl substrate, DTNB, 405 nm)
Type: biochemical
Details: Z-Lys-SBzl 1.29 mM, pH 7.5, 10% DMSO, tested a minimum of three times, read-out: Measured Ki (IC50) Value for Compounds: IC50
Method: The IC50 value of a compound (i.e., the concentration of the compound that inhibits 50% of the enzymatic activity) was calculated according to the procedure reported in U.S. Pat. No. 6,653,340 B1, e.g., column 74 (incorporated by reference).
Specifically, the compounds were dissolved in a stock solution of DMSO at 10.0 or 100 mM. A portion of this stock solution was added to assay buffer in a final volume of 50 μL. Controls included buffer alone and enzyme solutions to which DMSO was added. Substrate was added to the reaction wells immediately or after incubation at room temperature. The reaction rates were measured spectrophotometrically by the generation of product at 405 nm for 600 sec. Background absorbance at 690 nm was measured and subtracted from the absorbance at 405 nm for each well.
The reaction rate for enzyme alone was compared to the rate of enzyme in the presence of inhibitor and the percent inhibition was calculated as shown below: Percent Inhibition=[Rate without inhibitor−Rate with inhibitor)/(Rate without inhibitor)]×100 Factor D Esterolytic Assay:
An established esterolytic assay for the measurement of Factor D activity and inhibition of Factor D activity was used (Kam, C. M.; McRae, B. J.; Harper, J. W.; Niemann, M. A.; Volanakis, J. E.; Powers, J. C. Human complement proteins D, C2, and B Active site mapping with peptide thioester substrates. J Biol. Chem. 1987, 262, 3444-3451). For this assay Z-Lys-SBzl, 1.29 mM (Kim, S.; Narayana, S. V. L; Volanakis, J. E. Mutational analysis of the substrate binding site of human complement Factor D. Biochemistry. 1994, 33, 14393-14399.) was used as the substrate for Factor D ([…]). Hydrolysis of this compound by Factor D liberated a free sulfhydryl group which is then reacted with 5,5′-dithiobis(2nitrobenzoic acid) producing an intense yellow color (Habeeb, A. F. S. A. Reaction of protein sulfhydryl groups with Ellman's Reagent. Methods in Enzymol. 1976, 25, 457-464). The assays were performed in 96 well microtiter plates and rates of hydrolysis were monitored at 405 nm on a Biotek Synergy H1 plate reader. Hydrolysis rates were reported as change in mOD/min. The assay was conducted in 100 mM HEPES, 500 mM NaCl, pH 7.5 containing 10% DMSO in a final volume of 50 μL per well.
An IC50, a compound concentration which inhibits 50% of the enzymatic activity, was calculated. Compounds in the examples were tested a minimum of three times.

Chain of Factor D (P00746 26-253): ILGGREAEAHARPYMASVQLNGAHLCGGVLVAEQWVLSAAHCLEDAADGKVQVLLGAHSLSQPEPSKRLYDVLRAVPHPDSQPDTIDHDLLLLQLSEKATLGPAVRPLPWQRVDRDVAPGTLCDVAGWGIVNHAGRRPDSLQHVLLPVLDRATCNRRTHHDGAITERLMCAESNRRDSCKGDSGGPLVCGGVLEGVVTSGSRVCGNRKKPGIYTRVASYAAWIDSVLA

SMILES	IC50 [nM]
NCc1cccc(-c2cc(COc3ccccc3CC(=O)O)cc3cc(CCO)oc23)c1 [Compound 178g, 2-(2-((7-(3-(aminomethyl)phenyl)-2-(2-hydroxyethyl)benzofuran-5-yl)methoxy)phenyl)acetic acid]	< 1000
NCc1nccc(-c2cc(COc3ccc(F)cc3CC(=O)O)cc3ccoc23)c1F [Compound 90d, 2-(2-((7-(2-(aminomethyl)-3-fluoropyridin-4-yl)benzofuran-5-yl)methoxy)-5-fluorophenyl)acetic acid]	< 1000
Cn1ncc2c(-c3cccc(CN)c3F)cc(COc3ccccc3CC(=O)O)cc21 [Compound 128g, 2-(2-((4-(3-(aminomethyl)-2-fluorophenyl)-1-methyl-1H-indazol-6-yl)methoxy)phenyl)acetic acid]	< 1000
Nc1cccc(-c2cc(COc3ccccc3CC(=O)O)cc3ccoc23)c1 [Compound 184c, 2-(2-((7-(3-aminophenyl)benzofuran-5-yl)methoxy)phenyl)acetic acid]	1000 to 10000
CN(C)c1nc2cc(C(=O)Nc3ccccc3CC(=O)O)cc(-c3cccc(CN)c3)c2o1 [Compound 61f, 2-(2-(7-(3-(aminomethyl)phenyl)-2-(dimethylamino)benzo[d]oxazole-5-carboxamido)phenyl)acetic acid]	1000 to 10000
NCc1cccc(-c2cc(COc3ccccc3CC(=O)O)cc3sccc23)c1 [Compound 116f, 2-(2-((4-(3-(aminomethyl)phenyl)benzo[b]thiophen-6-yl)methoxy)phenyl)acetic acid]	< 1000
NCc1cccc(-c2cc(COc3ccccc3CC(=O)O)cc3cc(C(F)(F)F)oc23)c1 [Compound 199f, 2-(2-((7-(3-(aminomethyl)phenyl)-2-(trifluoromethyl)benzofuran-5-yl)methoxy)phenyl)acetic acid]	< 1000
NCc1cccc(-c2nc(C(=O)Nc3ccccc3CC(=O)O)nc3c2ccn3CC2CC2)c1 [Compound 16i, 2-(2-(4-(3-(aminomethyl)phenyl)-7-(cyclopropylmethyl)-7H-pyrrolo[2,3-d]pyrimidine-2-carboxamido)phenyl)acetic acid]	< 1000
NCc1cccc(-c2nc(C(=O)Nc3cccnc3CC(=O)O)c3cccn3n2)c1 [Compound 157d, 2-(3-(2-(3-(aminomethyl)phenyl)pyrrolo[2,1-f][1,2,4]triazine-4-carboxamido)pyridin-2-yl)acetic acid]	> 10000
NCc1cccc(-c2cc(COc3ccccc3CC(=O)O)cc3cc(CNCC4CCCNC4)oc23)c1 (stereo not shown) [Compound 194d, 2-(2-((7-(3-(aminomethyl)phenyl)-2-(((piperidin-3-ylmethyl)amino)methyl)benzofuran-5-yl)methoxy)phenyl)acetic acid]	< 1000
NCc1cccc(-c2nc(C(=O)Nc3sccc3CC(=O)O)cc3ccoc23)c1 [Compound 41d, 2-(2-(7-(3-(aminomethyl)phenyl)furo[2,3-c]pyridine-5-carboxamido)thiophen-3-yl)acetic acid]	< 1000
NC(=O)c1cccc(-c2cc(COc3ccccc3CC(=O)O)cc3ccoc23)c1 [Compound 85d, 2-(2-((7-(3-carbamoylphenyl)benzofuran-5-yl)methoxy)phenyl)acetic acid]	1000 to 10000
NCc1cccc(-c2cc(C(=O)Nc3ccccc3CC(=O)O)c3nccn3c2)c1 [Compound 6e, 2-(2-(6-(3-(aminomethyl)phenyl)imidazo[1,2-a]pyridine-8-carboxamido)phenyl)acetic acid]	1000 to 10000
NCc1cccc(-c2cc(COc3ccccc3CC(=O)O)c(F)c3ccoc23)c1 [Compound 136e, 2-(2-((7-(3-(aminomethyl)phenyl)-4-fluorobenzofuran-5-yl)methoxy)phenyl)acetic acid]	< 1000

Second part, the compound after the results:

IC50 [nM]	SMILES
< 1000	CCc1ccc(CC(=O)O)c(OCc2cc(-c3cccc(CN)c3)c3oc(F)cc3c2)c1 [Compound 469g, 2-(2-((7-(3-(aminomethyl)phenyl)-2-fluorobenzofuran-5-yl)methoxy)-4-ethylphenyl)acetic acid]
< 1000	Cc1c(COc2ccccc2CC(=O)O)cc(-c2cccc(CN)c2)c2occc12 [Compound 413n, 2-(2-((7-(3-(aminomethyl)phenyl)-4-methylbenzofuran-5-yl)methoxy)phenyl)acetic acid]
< 1000	CC(C)(C)c1cc(OCc2cc(-c3cccc(CN)c3)c3occc3c2)c(CC(=O)O)cc1Cl [Compound 308h, 2-(2-((7-(3-(aminomethyl)phenyl)benzofuran-5-yl)methoxy)-4-(tert-butyl)-5-chlorophenyl)acetic acid]
< 1000	NCc1cccc(-c2cc(COc3ccc(Br)cc3CC(=O)O)cc3ccoc23)c1 [Compound 208d, 2-(2-((7-(3-(aminomethyl)phenyl)benzofuran-5-yl)methoxy)-5-bromophenyl)acetic acid]
< 1000	NCc1cccc(-c2cc(COc3ccccc3CC(=O)O)cc3cccnc23)c1 [Compound 285e, 2-(2-((8-(3-(aminomethyl)phenyl)quinolin-6-yl)methoxy)phenyl)acetic acid]
< 1000	NCc1cccc(-c2cc(COc3cc(C(N)=O)ccc3CC(=O)O)cc3ccoc23)c1F [Compound 411e, 2-(2-((7-(3-(aminomethyl)-2-fluorophenyl)benzofuran-5-yl)methoxy)-4-carbamoylphenyl)acetic acid]
< 1000	Cc1ccc(CC(=O)O)c(OCc2cc(-c3cccc(CN)c3)c3sccc3c2)c1 [Compound 443i, 2-(2-((7-(3-(aminomethyl)phenyl)benzo[b]thiophen-5-yl)methoxy)-4-methylphenyl)acetic acid]
< 1000	CC(=O)c1ccc(CC(=O)O)c(OCc2cc(-c3cccc(CN)c3F)c3occc3c2)c1 [Compound 479d, 2-(4-acetyl-2-((7-(3-(aminomethyl)-2-fluorophenyl)benzofuran-5-yl)methoxy)phenyl)acetic acid]
< 1000	Cn1cc(-c2ccc(CC(=O)O)c(OCc3cc(-c4cccc(CN)c4)c4occc4c3)c2)cn1 [Compound 396e, 2-(2-((7-(3-(aminomethyl)phenyl)benzofuran-5-yl)methoxy)-4-(1-methyl-1H-pyrazol-4-yl)phenyl)acetic acid]
< 1000	NCc1cccc(-c2cc(COc3ccccc3CC(=O)O)cc3cc(C(N)c4ccccc4)oc23)c1 (single isomer, unassigned; (+)) [Compound 460d, (+)-2-(2-((2-(amino(phenyl)methyl)-7-(3-(aminomethyl)phenyl)benzofuran-5-yl)methoxy)phenyl)acetic acid]
< 1000	Cc1ccc(CC(=O)O)c(OCc2cc(-c3ccnc(CN)c3)c3occ(C(F)(F)F)c3c2)c1 [Compound 379c, 2-(2-((7-(2-(aminomethyl)pyridin-4-yl)-3-(trifluoromethyl)benzofuran-5-yl)methoxy)-4-methylphenyl)acetic acid]
< 1000	NCc1cccc(-c2cc(COc3ccccc3CC(=O)O)cc3cc(CNCc4ccccc4)oc23)c1 [Compound 283c, 2-(2-((7-(3-(aminomethyl)phenyl)-2-((benzylamino)methyl)benzofuran-5-yl)methoxy)phenyl)acetic acid]
< 1000	NCc1cccc(-c2cc(COc3ccccc3CC(=O)O)cc3cc(CNC(=O)c4ccc(F)cc4F)oc23)c1 [Compound 297c, 2-(2-((7-(3-(aminomethyl)phenyl)-2-((2,4-difluorobenzamido)methyl)benzofuran-5-yl)methoxy)phenyl)acetic acid]
< 1000	NCc1nccc(-c2cc(COc3cc(F)ccc3CC(=O)O)cc3ccoc23)c1F [Compound 364d, 2-(2-((7-(2-(aminomethyl)-3-fluoropyridin-4-yl)benzofuran-5-yl)methoxy)-4-fluorophenyl)acetic acid]
< 1000	N#Cc1ccc(-c2ccc(CC(=O)O)c(OCc3cc(-c4cccc(CN)c4)c4occc4c3)c2)s1 [Compound 324c, 2-(2-((7-(3-(aminomethyl)phenyl)benzofuran-5-yl)methoxy)-4-(5-cyanothiophen-2-yl)phenyl)acetic acid]
< 1000	NCc1nccc(-c2cc(COc3c(F)cccc3CC(=O)O)cc3ccoc23)c1F [Compound 510d, 2-(2-((7-(2-(aminomethyl)-3-fluoropyridin-4-yl)benzofuran-5-yl)methoxy)-3-fluorophenyl)acetic acid]
< 1000	CC(=O)Nc1ccc(CC(=O)O)c(OCc2cc(-c3cccc(CN)c3)c3oc(CO)cc3c2)c1 [Compound 421e, 2-(4-acetamido-2-((7-(3-(aminomethyl)phenyl)-2-(hydroxymethyl)benzofuran-5-yl)methoxy)phenyl)acetic acid]
